{
  "source": "ChEMBL document CHEMBL5352493",
  "about": "“Dual inhibitors of ASK1 and PDK1 kinases: Design, synthesis, molecular docking and mechanism studies of N-benzyl pyridine-2-one containing derivatives as anti-fibrotic agents” (Eur J Med Chem, 2023)",
  "key": {"[1]": {"assay": "Antiproliferative against rat NRK-49F cells measured after 48 hrs by CCK8 assay", "format": "toxicity, cell-based"}, "[2]": {"assay": "Antiproliferative against HLF1 cells measured after 48 hrs by CCK8 assay", "format": "toxicity, cell-based", "details": "human, HFL1 cells (description prints HLF1)"}, "[3]": {"assay": "Antiproliferative against rat HSC-T6 cells measured after 48 hrs by CCK8 assay", "format": "toxicity, cell-based"}, "[4]": {"biological_target": "T1, Mitogen-activated protein kinase kinase kinase 5 (Homo sapiens, UniProt Q99683)", "T1 sequence (Q99683 whole entry)": "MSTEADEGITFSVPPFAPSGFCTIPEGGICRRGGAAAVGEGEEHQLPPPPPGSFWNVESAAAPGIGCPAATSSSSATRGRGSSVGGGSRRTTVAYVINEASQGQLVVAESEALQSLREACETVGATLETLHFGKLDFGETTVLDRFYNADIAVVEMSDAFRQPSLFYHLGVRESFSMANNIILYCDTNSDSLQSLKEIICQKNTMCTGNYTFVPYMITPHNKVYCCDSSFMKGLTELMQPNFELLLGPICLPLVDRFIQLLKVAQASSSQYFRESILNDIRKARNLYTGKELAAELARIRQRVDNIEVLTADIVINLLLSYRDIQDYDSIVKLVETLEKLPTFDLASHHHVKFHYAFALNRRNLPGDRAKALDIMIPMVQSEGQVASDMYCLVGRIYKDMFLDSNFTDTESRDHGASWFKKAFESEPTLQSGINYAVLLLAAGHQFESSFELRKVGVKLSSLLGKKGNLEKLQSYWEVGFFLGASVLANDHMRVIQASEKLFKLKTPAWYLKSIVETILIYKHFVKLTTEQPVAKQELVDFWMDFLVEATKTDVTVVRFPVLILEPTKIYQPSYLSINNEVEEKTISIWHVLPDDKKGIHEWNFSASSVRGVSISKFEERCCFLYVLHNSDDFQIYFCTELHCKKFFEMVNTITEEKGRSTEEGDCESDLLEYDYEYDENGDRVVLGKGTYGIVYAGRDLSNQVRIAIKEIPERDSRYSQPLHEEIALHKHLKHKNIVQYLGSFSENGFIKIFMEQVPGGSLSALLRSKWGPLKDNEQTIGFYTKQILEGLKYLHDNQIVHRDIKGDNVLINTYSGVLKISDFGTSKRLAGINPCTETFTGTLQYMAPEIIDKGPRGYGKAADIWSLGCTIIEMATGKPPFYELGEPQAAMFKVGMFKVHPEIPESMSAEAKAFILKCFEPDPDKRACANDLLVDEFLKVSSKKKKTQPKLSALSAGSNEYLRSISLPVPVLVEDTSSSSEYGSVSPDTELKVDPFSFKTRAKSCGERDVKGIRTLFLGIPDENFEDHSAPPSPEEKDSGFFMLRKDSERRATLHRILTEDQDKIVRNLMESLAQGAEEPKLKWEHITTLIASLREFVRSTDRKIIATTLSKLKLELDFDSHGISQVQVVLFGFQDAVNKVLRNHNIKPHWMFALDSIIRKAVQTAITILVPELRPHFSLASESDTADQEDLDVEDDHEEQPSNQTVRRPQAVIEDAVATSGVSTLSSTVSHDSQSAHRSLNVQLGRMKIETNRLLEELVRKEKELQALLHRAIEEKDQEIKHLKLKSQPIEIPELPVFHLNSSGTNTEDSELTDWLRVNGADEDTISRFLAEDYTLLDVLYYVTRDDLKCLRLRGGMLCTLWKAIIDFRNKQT", "assay": "Inhibition of human recombinant ASK1 using MBP as substrate preincubated for 1 hr followed by reagent addition incubated for 40 mins by ATP-Glo kinase assay"}, "[5]": {"assay": "Antiproliferative against human BEAS-2B cells measured after 48 hrs by CCK8 assay", "format": "toxicity, cell-based"}, "HFL1 [6]": {"system": "HFL1", "assay": "Downregulation of phosphorylated ASK1 in TGF-beta1 induced HFL1 cells at 7.5 to 15 uM for 24 hrs by Western blotting analysis", "format": "functional, cell-based", "details": "Homo sapiens, dose 7.5-15 µM"}, "HFL1 [7]": {"system": "HFL1", "assay": "Downregulation of phosphorylated p38 in TGF-beta1 induced HFL1 cells at 7.5 to 15 uM for 24 hrs by Western blotting analysis", "format": "functional, cell-based", "details": "Homo sapiens, dose 7.5-15 µM"}, "HFL1 [8]": {"system": "HFL1", "assay": "Downregulation of phosphorylated JNK in TGF-beta1 induced HFL1 cells at 7.5 to 15 uM for 24 hrs by Western blotting analysis", "format": "functional, cell-based", "details": "Homo sapiens, dose 7.5-15 µM"}, "HFL1 [9]": {"system": "HFL1", "assay": "Downregulation of phosphorylated PDK1 in TGF-beta1 induced HFL1 cells at 7.5 to 15 microM for 24 hrs by Western blotting analysis", "format": "functional, cell-based", "details": "Homo sapiens, dose 7.5-15 µM"}, "HFL1 [10]": {"system": "HFL1", "assay": "Downregulation of phosphorylated Akt in TGF-beta1 induced HFL1 cells at 7.5 microM for 24 hrs by Western blotting analysis", "format": "functional, cell-based", "details": "Homo sapiens"}, "HFL1 [11]": {"system": "HFL1", "assay": "Antifibrotic activity in TGF-beta1 induced HLF1 cells assessed as decrease in alpha SMA expression level measured at 7.5 to 15 uM after 24 hrs by Western blotting analysis", "format": "functional, cell-based", "details": "Homo sapiens, dose 7.5-15 µM"}, "HFL1 [12]": {"system": "HFL1", "assay": "Antifibrotic activity in TGF-beta1 induced HLF1 cells assessed as decrease in collagen - I expression level measured at 7.5 to 15 uM after 24 hrs by Western blotting analysis", "format": "functional, cell-based", "details": "Homo sapiens, dose 7.5-15 µM"}, "HFL1 [13]": {"system": "HFL1", "assay": "Antifibrotic activity in TGF-beta1 induced HLF1 cells assessed as decrease in phosphorylated smad2 level measured at 7.5 to 15 uM after 24 hrs by Western blotting analysis", "format": "functional, cell-based", "details": "Homo sapiens, dose 7.5-15 µM"}, "HFL1 [14]": {"system": "HFL1", "assay": "Antifibrotic activity in TGF-beta1 induced HLF1 cells assessed as decrease in phosphorylated smad3 level measured at 7.5 to 15 uM after 24 hrs by Western blotting analysis", "format": "functional, cell-based", "details": "Homo sapiens, dose 7.5-15 µM"}, "HFL1 [15]": {"system": "HFL1", "assay": "Induction of apoptosis in HLF1 cells assessed as decrease in antiapoptotic Bcl-2 protein at 7.5 to 15 uM for 24 hrs by Western blotting analysis", "format": "functional, cell-based", "details": "Homo sapiens, dose 7.5-15 µM"}, "HFL1 [16]": {"system": "HFL1", "assay": "Induction of apoptosis in HLF1 cells assessed as viable cells at 15 uM incubated for 24 hrs measured by annexinV-FITC/PI based flow cytometric analysis (reference value: 88.3%)", "format": "functional", "details": "Homo sapiens, read-out: Activity"}, "HFL1 [17]": {"system": "HFL1", "assay": "Induction of apoptosis in HLF1 cells assessed as early apoptotic cells at 15 uM incubated for 24 hrs measured by annexinV-FITC/PI based flow cytometric analysis (reference value: 11.6%)", "format": "functional, Homo sapiens"}, "HFL1 [18]": {"system": "HFL1", "assay": "Induction of apoptosis in HLF1 cells assessed as late apoptotic cells at 15 uM incubated for 24 hrs measured by annexinV-FITC/PI based flow cytometric analysis (reference value: 0.08%)", "format": "functional, Homo sapiens"}, "HFL1 [19]": {"system": "HFL1", "assay": "Induction of apoptosis in HLF1 cells assessed as necrotic cells at 15 uM incubated for 24 hrs measured by annexinV-FITC/PI based flow cytometric analysis (reference value: 0%)", "format": "functional, Homo sapiens"}, "HFL1 [20]": {"system": "HFL1", "assay": "Induction of apoptosis in HLF1 cells assessed as viable cells at 7.5 uM incubated for 24 hrs measured by annexinV-FITC/PI based flow cytometric analysis (reference value: 88.3%)", "format": "functional", "details": "Homo sapiens, read-out: Activity"}, "HFL1 [21]": {"system": "HFL1", "assay": "Induction of apoptosis in HLF1 cells assessed as early apoptotic cells at 7.5 uM incubated for 24 hrs measured by annexinV-FITC/PI based flow cytometric analysis (reference value: 11.6%)", "format": "functional, Homo sapiens"}, "HFL1 [22]": {"system": "HFL1", "assay": "Induction of apoptosis in HLF1 cells assessed as late apoptotic cells at 7.5 uM incubated for 24 hrs measured by annexinV-FITC/PI based flow cytometric analysis (reference value: 0.08%)", "format": "functional, Homo sapiens"}, "HFL1 [23]": {"system": "HFL1", "assay": "Induction of apoptosis in HLF1 cells assessed as necrotic cells at 7.5 uM incubated for 24 hrs measured by annexinV-FITC/PI based flow cytometric analysis (reference value: 0%)", "format": "functional, Homo sapiens"}, "HFL1 [24]": {"system": "HFL1", "assay": "Induction of apoptosis in HLF1 cells assessed as viable cells at 22.5 uM incubated for 24 hrs measured by annexinV-FITC/PI based flow cytometric analysis (reference value: 88.3%)", "format": "functional", "details": "Homo sapiens, read-out: Activity"}, "HFL1 [25]": {"system": "HFL1", "assay": "Induction of apoptosis in HLF1 cells assessed as early apoptotic cells at 22.5 uM incubated for 24 hrs measured by annexinV-FITC/PI based flow cytometric analysis (reference value: 11.6%)", "format": "functional, Homo sapiens"}, "HFL1 [26]": {"system": "HFL1", "assay": "Induction of apoptosis in HLF1 cells assessed as late apoptotic cells at 22.5 uM incubated for 24 hrs measured by annexinV-FITC/PI based flow cytometric analysis (reference value: 0.08%)", "format": "functional, Homo sapiens"}, "HFL1 [27]": {"system": "HFL1", "assay": "Induction of apoptosis in HLF1 cells assessed as necrotic cells at 22.5 uM incubated for 24 hrs measured by annexinV-FITC/PI based flow cytometric analysis (reference value: 0%)", "format": "functional, Homo sapiens"}},
  "note": "Active and inactive are the calls of the source. The rule behind the calls is not given here.",
  "data": [
    {"smiles": "O=C(Nc1cccc(-c2nncn2C2CC2)n1)c1cc(-c2cnn(C3CC3)c2)cn(Cc2ccccc2F)c1=O", "values": [
      {"measurement": "IC50 at 48 h", "setting": "[1]", "result": 21.1, "unit": "µM"},
      {"measurement": "IC50 at 48 h", "setting": "[2]", "result": 15.2, "unit": "µM"},
      {"measurement": "IC50 at 48 h", "setting": "[3]", "result": 35.5, "unit": "µM"},
      {"measurement": "IC50", "setting": "[4]", "result": 0.00173, "unit": "µM"},
      {"measurement": "IC50 at 48 h", "setting": "[5]", "result": 36, "unit": "µM"},
      {"measurement": "Activity", "setting": "HFL1 [6]", "result": "Active"},
      {"measurement": "Activity", "setting": "HFL1 [7]", "result": "Active"},
      {"measurement": "Activity", "setting": "HFL1 [8]", "result": "Active"},
      {"measurement": "Activity", "setting": "HFL1 [9]", "result": "Dose-Dependent Effect"},
      {"measurement": "Activity", "setting": "HFL1 [10]", "result": "Active"},
      {"measurement": "Activity", "setting": "HFL1 [11]", "result": "Dose-Dependent Effect"},
      {"measurement": "Activity", "setting": "HFL1 [12]", "result": "Dose-Dependent Effect"},
      {"measurement": "Activity", "setting": "HFL1 [13]", "result": "Active"},
      {"measurement": "Activity", "setting": "HFL1 [14]", "result": "Active"},
      {"measurement": "Activity", "setting": "HFL1 [15]", "result": "Active"},
      {"measurement": "viability at 15 µM", "setting": "HFL1 [16]", "result": 67.6, "unit": "%"},
      {"measurement": "Activity", "setting": "HFL1 [17]", "result": 32.3, "unit": "%"},
      {"measurement": "Activity", "setting": "HFL1 [18]", "result": 0.079, "unit": "%"},
      {"measurement": "Activity", "setting": "HFL1 [19]", "result": 0, "unit": "%"},
      {"measurement": "viability at 7.5 µM", "setting": "HFL1 [20]", "result": 71.2, "unit": "%"},
      {"measurement": "Activity", "setting": "HFL1 [21]", "result": 28.7, "unit": "%"},
      {"measurement": "Activity", "setting": "HFL1 [22]", "result": 0.083, "unit": "%"},
      {"measurement": "Activity", "setting": "HFL1 [23]", "result": 0, "unit": "%"},
      {"measurement": "viability at 22.5 µM", "setting": "HFL1 [24]", "result": 69.6, "unit": "%"},
      {"measurement": "Activity", "setting": "HFL1 [25]", "result": 30.3, "unit": "%"},
      {"measurement": "Activity", "setting": "HFL1 [26]", "result": 0.104, "unit": "%"},
      {"measurement": "Activity", "setting": "HFL1 [27]", "result": 0.015, "unit": "%"}
    ]}
  ]
}
